This passage reports selectivity ratio, Ki and IC50 results from ChEMBL document CHEMBL4765292, “Flexible diaminodihydrotriazine inhibitors of Plasmodium falciparum dihydrofolate reductase: Binding strengths, modes of binding and their antimalarial activities” (Eur J Med Chem, 2020).

What is called Ki is the dissociation constant of the complex between target and ligand, obtained from inhibition or displacement. The IC50 is the midpoint of a concentration-inhibition curve.

Bounds are passed on as bounds.

Series [1] in a line: Therapeutic index, ratio of IC50 for African green monkey Vero cells to IC50 for Plasmodium falciparum TM4/8.2. The series is classed as toxicity. Particulars: against Plasmodium falciparum TM4/8.2, read-out: Ratio IC50.
Series [2] is described as follows: Therapeutic index, ratio of IC50 for African green monkey Vero cells to IC50 for Plasmodium falciparum V1/S harboring DHFR N51I/C59R/S108N/I164L mutant. It is filed as toxicity. The settings on record: read-out: Ratio IC50.
A short description of series [3]: Inhibition of Plasmodium falciparum DHFR N51I/C59R/S108N/I164L mutant expressed in Escherichia coli BL21 using DHF as substrate by spectrophotometric analysis.
The subject of series [4] is Plasmodium falciparum. The series can be described thus: Antimalarial activity against Plasmodium falciparum K1CB1 harboring DHFR […] mutant infected in human erythrocytes assessed as reduction in [3H]-hypoxanthine incorporation pretreated for 20 hrs followed by [3H]-hypoxanthine addition measured after 20 hrs by radioactivity method. The series is classed as functional, organism-based. Particulars: K1CB1, Erythrocyte.

Series [5] is described as follows: Inhibition of Plasmodium falciparum DHFR C59R/S108N/I164L mutant expressed in Escherichia coli BL21 using DHF as substrate by spectrophotometric analysis.
Series [6] deals with Plasmodium falciparum. The experiment in a line: Antimalarial activity against Plasmodium falciparum W2 harboring DHFR N51I/C59R/S108N mutant infected in human erythrocytes assessed as reduction in [3H]-hypoxanthine incorporation pretreated for 20 hrs followed by [3H]-hypoxanthine addition measured after 20 hrs by radioactivity method. The series is classed as functional, organism-based. The settings on record: W2, Erythrocyte.

Series [7] is described as follows: Inhibition of Plasmodium falciparum DHFR […] mutant expressed in Escherichia coli BL21 using DHF as substrate by spectrophotometric analysis.
A short description of series [8]: Therapeutic index, ratio of IC50 for African green monkey Vero cells to IC50 for Plasmodium falciparum K1CB1 harboring DHFR […] mutant. The series is classed as toxicity. The settings on record: read-out: Ratio IC50.
Series [9] deals with DHFR (human against Plasmodium falciparum DHFR N51I/C59R/S108N/I164L mutant). The experiment in a line: Selectivity index, ratio of Ki for human DHFR expressed in Escherichia coli BL21 to Ki for Plasmodium falciparum DHFR N51I/C59R/S108N/I164L mutant expressed in Escherichia coli BL21. The series is classed as toxicity. The settings on record: read-out: Ratio Ki.
Series [10] relates to Plasmodium falciparum. The experiment in a line: Antimalarial activity against Plasmodium falciparum T9/94 RC17 harboring DHFR A16V/S108T mutant infected in human erythrocytes assessed as reduction in [3H]-hypoxanthine incorporation pretreated for 20 hrs followed by [3H]-hypoxanthine addition measured after 20 hrs by radioactivity method. It is filed as functional, organism-based. The settings on record: T9/94 RC17, Erythrocyte.

The subject of series [11] is Plasmodium falciparum. The experiment in a line: Antimalarial activity against Plasmodium falciparum TM4/8.2 infected in human erythrocytes assessed as reduction in [3H]-hypoxanthine incorporation pretreated for 20 hrs followed by [3H]-hypoxanthine addition measured after 20 hrs by radioactivity method. It is filed as functional, organism-based.
Series [12] deals with DHFR (human against Plasmodium falciparum DHFR). The experiment in a line: Selectivity index, ratio of Ki for human DHFR expressed in Escherichia coli BL21 to Ki for Plasmodium falciparum DHFR expressed in Escherichia coli BL21. Particulars: read-out: Ratio Ki. It is filed as toxicity.
The subject of series [13] is Vero. The experiment in a line: Cytotoxicity against African green monkey Vero cells assessed as reduction in cell viability incubated for 72 hrs by SRB assay. The series is classed as cell-based. Particulars: Chlorocebus sabaeus. On the technique in general: In SRB staining, fixed cells bind dye roughly in proportion to their protein.
Series [14] relates to Plasmodium falciparum. The series can be described thus: Antimalarial activity against Plasmodium falciparum V1/S harboring DHFR N51I/C59R/S108N/I164L mutant infected in human erythrocytes assessed as reduction in [3H]-hypoxanthine incorporation pretreated for 20 hrs followed by [3H]-hypoxanthine addition measured after 20 hrs by radioactivity method. It is filed as functional, organism-based. The settings on record: Erythrocyte.

The nature of series [15]: Inhibition of Plasmodium falciparum DHFR A16V/S108T mutant expressed in Escherichia coli BL21 using DHF as substrate by spectrophotometric analysis.
The test system of series [16] is Plasmodium falciparum. The experiment in a line: Antimalarial activity against Plasmodium falciparum CsI-2 harboring DHFR C59R/S108N/I164L mutant infected in human erythrocytes assessed as reduction in [3H]-hypoxanthine incorporation pretreated for 20 hrs followed by [3H]-hypoxanthine addition measured after 20 hrs by radioactivity method. The series is classed as functional, organism-based. Particulars: CsI-2, Erythrocyte.

For series [17], the system named is DHFR (human against Plasmodium falciparum DHFR double mutant). The experiment in a line: Selectivity index, ratio of Ki for human DHFR expressed in Escherichia coli BL21 to Ki for Plasmodium falciparum DHFR double mutant expressed in Escherichia coli BL21. It is filed as toxicity. The settings on record: read-out: Ratio Ki.
A short description of series [18]: Inhibition of Plasmodium falciparum DHFR expressed in Escherichia coli BL21 using DHF as substrate by spectrophotometric analysis.
Series [19] can be described thus: Inhibition of Plasmodium falciparum DHFR N51I/C59R/S108N mutant expressed in Escherichia coli BL21 using DHF as substrate by spectrophotometric analysis.

As to `CC1(C)N=C(N)N=C(N)N1OCCCOc1ccc(Cl)cc1`, the selectivity ratio in series [1] was 607; in series [2] it was 7; in series [8], 89; in series [9], 29; in series [12], 49; in series [17], 32. The inhibition constant (Ki) in series [3] was 1 nM; in series [5], 0.9 nM; in [7], 0.9 nM; in [15], 1.2 nM; in series [18] it was 0.6 nM. The half-maximal inhibitory concentration (IC50) is 1.9 nM in series [4]; 2.1 nM in series [6]; 0.24 nM in series [10]; 0.28 nM in series [11]; 170 nM in series [13]; 23 nM in series [14]. Besides, the IC50 in [16] was determined as 3.9 nM.
With `Cc1ccc(C)c(NCCCON2C(N)=NC(N)=NC2(C)C)c1`, the selectivity ratio in series [1] was above 1920; in series [2] it was above 143; in series [8], above 500; in [9], 33; in [12], 155; in series [17], 113. Further, the Ki in series [19] was found to be 1.4 nM; in series [3], 3.8 nM; in series [5], 1.5 nM; in series [7], 1.1 nM; in series [15], 4.1 nM; in series [18], 0.8 nM. Further, the IC50 in series [4] was 100 nM; in [6], 43 nM; in series [11], 26 nM; in series [13] it was above 50000 nM; in series [14], 350 nM; in series [16], 310 nM.
With `CC1(C)N=C(N)N=C(N)N1OCCCOc1ccc(F)cc1Cl`, the selectivity ratio in [1] came to 629000; in series [2], 7130; in series [8], 82300; in [9], 31; in series [12], 94; in series [17], 42. For the same molecule, the inhibitory constant (Ki) in series [3] is 1.2 nM; in series [5], 0.9 nM; in [7], 0.9 nM; in series [15], 1.8 nM; in series [18] it was 0.4 nM. The 50% inhibitory concentration (IC50) in series [4] was 0.26 nM; in [6] it was 0.24 nM; in [10] it was 0.28 nM; in series [11], 0.034 nM; in [13], 21400 nM; in series [14], 3 nM. Also, the IC50 in series [16] was 3.1 nM.
For the molecule `CN(CCCON1C(N)=NC(N)=NC1(C)C)c1ccc(Cl)cc1`, the selectivity ratio stood at 26500 in series [1]; 107 in series [2]; 918 in [8]; 10 in series [9]; 22 in [12]; 24 in series [17]. The inhibition constant Ki in series [3] is 3.4 nM; in series [5], 2 nM; in series [7] it was 1.4 nM; in series [15] it was 3.4 nM; in series [18], 1.5 nM. In addition, the half-maximal inhibitory concentration (IC50) in series [4] came to 49 nM; in series [6] it was 24 nM; in series [10], 3.2 nM; in series [11], 1.7 nM; in series [13], 45000 nM; in series [14], 420 nM. For the same molecule, the half-maximal inhibitory concentration (IC50) in series [16] came out at 170 nM.
For `CC1(C)N=C(N)N=C(N)N1OCCCSc1cccc(Cl)c1`, the selectivity ratio in series [1] was determined as 3000; in series [2] it was 51; in series [8] it was 709; in series [9], 24; in series [12], 34; in series [17], 30. The inhibitory constant (Ki) in [3] was 1 nM; in series [5] it was 0.9 nM; in series [7], 0.8 nM; in series [15], 3.4 nM; in [18] it was 0.7 nM. Further, the IC50 turned out to be 5.5 nM in series [4]; 8.1 nM in series [6]; 2.4 nM in series [10]; 1.3 nM in series [11]; 3900 nM in [13]; 77 nM in series [14]. The IC50 in series [16] is 42 nM.
On to `CC1(C)N=C(N)N=C(N)N1OCCCc1ccccc1`, for which the selectivity ratio was found to be 772 in series [1]; 79 in series [2]; 323 in series [8]; 8 in series [9]; 36 in series [12]; 30 in series [17]. For the same molecule, the Ki in [19] stood at 1.2 nM; in [3] it was 5 nM; in series [5] it was 2.8 nM; in series [7], 1.3 nM; in series [15] it was 3.1 nM; in series [18] it was 1.1 nM. Also, the IC50 in series [4] worked out at 22 nM; in series [6], 39 nM; in series [11], 9.2 nM; in [13], 7100 nM; in series [14] it was 90 nM; in series [16] it was 250 nM.
As to `CC1(C)N=C(N)N=C(N)N1OCCSc1ccc(Cl)cc1`, the selectivity ratio was 4000 in [1]; 26 in [2]; 378 in series [8]; 8 in series [9]; 84 in [12]; 32 in series [17]. For the same molecule, the Ki is 0.8 nM in series [19]; 3 nM in series [3]; 1.8 nM in series [5]; 0.8 nM in [7]; 1.5 nM in [15]; 0.3 nM in series [18]. Further, the IC50 came out at 37 nM in series [4]; 24 nM in series [6]; 3.5 nM in [11]; 14000 nM in series [13]; 540 nM in [14]; 32 nM in series [16].
With `CCN(CC)CCCON1C(N)=NC(N)=NC1(C)C`, the selectivity ratio in series [1] is above 2080; in series [2] it was above 63; in [8] it was above 1560; in series [9], 29; in series [12], 230; in series [17], 135. The Ki in series [19] came to 2.1 nM; in series [3] it was 7.9 nM; in [5] it was 5.5 nM; in series [7] it was 1.7 nM; in [15] it was 9.7 nM; in series [18] it was 1 nM. For the same molecule, the half-inhibitory concentration (IC50) in [4] was 32 nM; in [6], 70 nM; in series [11], 24 nM; in series [13] it was above 50000 nM; in [14], 800 nM; in series [16] it was 140 nM.
As to `CN(CCCON1C(N)=NC(N)=NC1(C)C)c1ccc(Cl)c(Cl)c1`, the selectivity ratio in series [1] is 64000; in [2], 115; in series [8] it was 1040; in series [9], 10; in [12] it was 30; in series [17] it was 39. Besides, the inhibition constant (Ki) in series [19] worked out at 1.5 nM; in [3] it was 3.9 nM; in [5], 2.3 nM; in series [7], 1 nM; in series [15], 4 nM; in series [18] it was 1.3 nM. For the same molecule, the IC50 in series [4] worked out at 32 nM; in series [6] it was 28 nM; in [11], 0.52 nM; in [13], 33300 nM; in [14] it was 290 nM; in series [16], 140 nM.
In the case of `CC1(C)NC(N)=NC(=N)N1OCCc1ccccc1`, the selectivity ratio in series [1] was 400; in series [2], 17; in [8], 308; in series [9], 3; in [12], 39; in series [17], 21. Further, the inhibition constant Ki is 2.9 nM in [19]; 17 nM in [3]; 12 nM in [5]; 2 nM in [7]; 7.1 nM in series [15]; 1.1 nM in series [18]. Also, the IC50 in series [4] stood at 39 nM; in [6], 240 nM; in series [11] it was 30 nM; in series [13], 12000 nM; in series [14], 720 nM; in series [16], 300 nM.
